Where two headings read alike, the source gives them in different places.
Columns and labels:
Type in all cases: cell-based
[1] = target: T1, protein kinases (human kinome) (Homo sapiens, UniProt O14965)
T1 sequence (O14965 1-403): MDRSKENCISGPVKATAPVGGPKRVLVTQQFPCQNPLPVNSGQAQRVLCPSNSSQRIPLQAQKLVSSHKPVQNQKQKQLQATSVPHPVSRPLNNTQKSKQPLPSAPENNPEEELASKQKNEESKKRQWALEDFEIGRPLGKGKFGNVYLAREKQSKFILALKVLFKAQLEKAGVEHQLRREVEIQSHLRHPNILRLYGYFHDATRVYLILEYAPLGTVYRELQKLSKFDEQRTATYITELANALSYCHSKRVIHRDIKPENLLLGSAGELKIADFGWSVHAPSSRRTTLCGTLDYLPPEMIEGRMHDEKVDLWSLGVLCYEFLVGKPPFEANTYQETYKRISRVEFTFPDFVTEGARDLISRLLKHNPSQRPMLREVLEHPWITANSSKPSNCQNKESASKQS

[2] = system: protein kinases (human kinome); settings: for kinases the bifunctional compound degrades: as stated for the structure in the embodiments; for Kinase hits: kinases significantly downregulated vs DMSO (fold change cutoff −1.25, P-value<0.01), ≤8 h, 0.1-5 μM degrader, 7 cell lines; for Total no. kinase hits: number of degraded kinases per library compound; for logFC of SRC: Accession P12931-2; for logFC LCK: accession P06239-3; for logFC RPS6KA1: RPS6KA1 (Q15418-2); for logFC MAPK8: MAPK8 P45983-4
[3] = target: protein kinases (human kinome) (Homo sapiens, UniProt Q9H0K1); settings: for logFC of SIK2: Accession Q9H0K1
protein kinases (human kinome) (Homo sapiens, UniProt Q9H0K1), sequence (Q9H0K1 whole entry): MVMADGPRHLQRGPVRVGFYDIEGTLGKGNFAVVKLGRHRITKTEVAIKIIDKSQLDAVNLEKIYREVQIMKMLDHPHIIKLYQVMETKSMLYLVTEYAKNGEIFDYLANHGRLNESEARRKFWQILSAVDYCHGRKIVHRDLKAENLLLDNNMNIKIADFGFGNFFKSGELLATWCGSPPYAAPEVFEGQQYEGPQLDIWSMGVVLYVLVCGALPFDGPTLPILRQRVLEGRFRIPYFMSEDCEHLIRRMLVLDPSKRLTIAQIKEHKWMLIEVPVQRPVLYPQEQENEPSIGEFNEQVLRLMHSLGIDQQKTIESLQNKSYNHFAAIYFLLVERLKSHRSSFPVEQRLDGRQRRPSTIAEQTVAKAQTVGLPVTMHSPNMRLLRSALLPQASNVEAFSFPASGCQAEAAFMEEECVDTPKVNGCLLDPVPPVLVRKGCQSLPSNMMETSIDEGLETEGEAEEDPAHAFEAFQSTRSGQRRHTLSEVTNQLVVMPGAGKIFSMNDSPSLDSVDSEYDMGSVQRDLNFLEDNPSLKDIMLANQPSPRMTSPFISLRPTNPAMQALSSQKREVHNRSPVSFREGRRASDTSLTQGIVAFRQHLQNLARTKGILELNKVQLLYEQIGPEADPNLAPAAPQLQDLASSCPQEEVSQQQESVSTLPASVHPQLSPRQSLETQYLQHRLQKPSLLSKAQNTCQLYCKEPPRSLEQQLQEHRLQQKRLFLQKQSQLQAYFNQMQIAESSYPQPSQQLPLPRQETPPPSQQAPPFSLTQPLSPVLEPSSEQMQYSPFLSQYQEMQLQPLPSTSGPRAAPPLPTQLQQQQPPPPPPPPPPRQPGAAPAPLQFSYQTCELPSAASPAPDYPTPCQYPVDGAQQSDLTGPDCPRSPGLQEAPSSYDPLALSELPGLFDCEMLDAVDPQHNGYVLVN

[4] = Accession O60566-3, experiment wp076, direction down
[5] = BUB1B (O60566-3), experiment wp076
[6] = CSNK1A1 (P48729-2), experiment wp076
[7] = CDK9 (P50750-2) protein abundance, degrader vs DMSO, down
[8] = CLK1 P49759-3, experiment wp076
[9] = experiment wp071, direction of change down
[10] = SRC (P12931-2) protein abundance, degrader vs DMSO, down
[11] = experiment wp016, direction of change down
[12] = AURKB Q96GD4-5, experiment wp137
[13] = experiment wp137, direction of change down
[14] = AURKB Q96GD4-5, experiment wp146
[15] = Accession P49841-2, experiment wp146, direction down
[16] = CLK1 P49759-3, experiment wp146
[17] = Experiment wp146, direction down
[18] = GSK3B P49841-2, experiment wp146

## CCc1cnn2c(N(Cc3ccc(N)nc3)C(=O)CCOCCOCCOCCNC(=O)CNc3cccc4c3C(=O)N(C3CCC(=O)NC3=O)C4=O)cc(N3CCCC[C@H]3CCO)nc12 (stereo partly drawn) [MFH.5.115.2]
[1]; experiment wp076
  logFC AURKA (O14965): −0.5912
[2]; [4]
  logFC BUB1B: −0.5013
[2]; [5]
  logFC BUB1B: −0.5013
[2]; [6]
  logFC: −0.349
[2]; experiment wp076
  logFC of CSNK1A1 (P48729-2): −0.349

## O=C1CCC(N2C(=O)c3cccc(NCCCCCCCCN4CCC(NC(=O)c5[nH]ncc5NC(=O)c5c(Cl)cccc5Cl)CC4)c3C2=O)C(=O)N1 (stereo not drawn) [MFH.5.126.1]
[1]; experiment wp076
  logFC AURKA (O14965): −0.9474
[2]; [4]
  logFC BUB1B: −0.7532
[2]; Accession P48730-2, experiment wp076, direction down
  logFC CSNK1D: −0.9201
[2]; Accession P49841-2, experiment wp078, direction down
  logFC GSK3B: −0.9629
[2]; [5]
  logFC BUB1B: −0.7532
[2]; [7]
  logFC: −0.7008
[2]; [8]
  logFC: −1.494
  logFC CLK1: −1.494
[2]; [6]
  logFC: −0.4586
[2]; CSNK1D P48730-2, experiment wp076
  logFC CSNK1D: −0.9201
[2]; Experiment wp076, direction of change down
  logFC DAPK1 (P53355-3): −0.4488
[2]; GSK3B P49841-2, experiment wp076
  logFC GSK3B: −0.9629
[2]; experiment wp076
  logFC CDK9 (P50750-2): −0.7008
  logFC of CSNK1A1 (P48729-2): −0.4586
[2]; protein DAPK1 (P53355-3), experiment wp076, down
  logFC DAPK1: −0.4488

## CS(=O)(=O)Nc1cccc(-c2csc3cnc(Nc4ccc(N5CCN(CCOCCOCCOc6cccc7c6C(=O)N(C6CCC(=O)NC6=O)C7=O)CC5)cc4)nc23)c1 (stereo not drawn) [RSS0628]
[1]; experiment wp045
  logFC AURKA (O14965): −1.13
[2]; CAMKK1 (Q8N5S9-2), experiment wp045
  logFC: −0.3412
[2]; Experiment wp045
  logFC of CAMKK1 (Q8N5S9-2): −0.3412
[2]
  kinases the bifunctional compound degrades: AAK1. AURKA, CAMKK1, CDK4, CDK6, LIMK2, NEK9, PTK2B, STK17A, STK17B, ULK1, ULK3, and WEE1
  Kinase hits: AAK1, AURKA, CAMKK1, CDK4, CDK6, LIMK2, NEK9, PTK2B, STK17A, STK17B, ULK1, ULK3, WEE1
  Total no. kinase hits: 13

## Cc1ncsc1-c1ccc([C@H](C)NC(=O)[C@@H]2C[C@@H](O)CN2C(=O)[C@@H](NC(=O)CCCCCN2CCN(c3ccc(Nc4ncc5scc(-c6cccc(NS(C)(=O)=O)c6)c5n4)cc3)CC2)C(C)(C)C)cc1 [RSS0680, (2S,4R)-1-((S)-3,3-Dimethyl-2-(6-(4-(4-((7-(3-(methylsulfonamido)phenyl)thieno[3,2-d]pyrimidin-2-yl)amino)phenyl)piperazin-1-yl)hexanamido)butanoyl)-4-hydroxy-N—((S)-1-(4-(4-methylthiazol-5yl)phenyl)ethyl)pyrrolidine-2-carboxamide]
[3]; experiment wp080
  logFC of SIK2: −0.6986
[3]; experiment wp117
  logFC of SIK2: −0.7184
[3]; SIK2 (Q9H0K1), experiment wp080, down
  logFC SIK2: −0.6986
[3]; experiment wp117, direction of change down
  logFC SIK2 (Q9H0K1): −0.7184
[2]
  kinases the bifunctional compound degrades: AAK1, CDK1, CDK16, CDK2, CDK4, CDK6, EIF2AK4, GAK. LATS1, LIMK2, MAPK6, MAPKAPK5, MARK2, MARK4, MKNK2, NEK9, RPS6KB1, SIK2, SNRK, STK17A, STK17B, STK35, and WEE1
  Kinase hits: AAK1, CDK1, CDK16, CDK2, CDKA, CDK6, EIF2AK4, GAK, LATS1, LIMK2, MAPK6, MAPKAPK5, MARK2, MARK4, MKNK2, NEK9, RPS6KB1, SIK2, SNRK, STK17A, STK17B. STK35, WEE1
  Total no. kinase hits: 26
[2]; experiment wp080
  logFC CDK16 (Q00536-2): −1.002
[2]; experiment wp117
  logFC CDK16 (Q00536-2): −0.9383
[2]; protein HK1 (P19367-3), experiment wp080, down
  logFC HK1: −0.3696

## Nc1ncnc2c1c(-c1ccc(Oc3ccccc3)cc1)nn2[C@H]1CC[C@H](N2CCN(CCOCCNC(=O)CNc3cccc4c3C(=O)N(C3CCC(=O)NC3=O)C4=O)CC2)CC1 (stereo partly drawn) [SB1.G.181]
[1]; experiment wp071
  logFC AURKA (O14965): −0.3684
[2]; ABL1 (P00519-2), experiment wp071
  logFC ABL1: −1.735
[2]; Accession P06241-2, experiment wp071
  logFC FYN: −2.276
[2]; experiment wp071
  logFC of SRC: −2.478
  logFC ABL1 (P00519-2): −1.735
[2]; FYN P06241-2, experiment wp071
  logFC FYN: −2.276
[2]; [9]
  logFC LCK: −1.774
  logFC LCK (P06239-3): −1.774
[2]; [10]
  logFC: −2.478

## CC(C)S(=O)(=O)c1ccccc1Nc1nc(Nc2ccc(N3CCN(CCOCCNC(=O)CNc4ccc5c(c4)C(=O)N(C4CCC(=O)NC4=O)C5=O)CC3)cc2)ncc1Cl (stereo not drawn) [SK.3.93]
[1]; experiment wp016
  logFC AURKA (O14965): −1.823
[2]; experiment wp016
  logFC of SRC: −0.3456
  logFC RPS6KA1: −0.3413
  logFC CDK9 (P50750-2): −0.6376
  logFC PRKAA1 (Q13131-2): −0.4738
  logFC RPS6KA1 (Q15418-2): −0.3413
[2]; [7]
  logFC: −0.6376
[2]; Experiment wp016, direction down
  logFC PRKAA1 (Q13131-2): −0.4738
[2]; [11]
  logFC LCK: −0.7798
  logFC LCK (P06239-3): −0.7798
[2]; [10]
  logFC: −0.3456

## CC(C)S(=O)(=O)c1ccccc1Nc1nc(Nc2ccc(N3CCN(CCOCCOCCC(=O)NCCNc4cccc5c4CN(C4CCC(=O)NC4=O)C5=O)CC3)cc2)ncc1Cl (stereo not drawn) [TL13.97]
[1]; experiment wp014
  logFC AURKA (O14965): −0.3268
[1]; experiment wp137
  logFC AURKA (O14965): −1.612
[2]; [12]
  logFC: −0.7523
  logFC AURKB: −0.7523
[2]; Accession O60566-3, experiment wp137, direction down
  logFC BUB1B: −0.3313
[2]; experiment wp137
  logFC of SRC: −0.4824
  logFC RPS6KA1: −0.3757
  logFC CDK9 (P50750-2): −1.37
  logFC PRKAA1 (Q13131-2): −0.6678
  logFC RPS6KA1 (Q15418-2): −0.3757
  logFC of CDK17 (Q00537-2): −0.5683
[2]; Accession Q00537-2, experiment wp137
  logFC of CDK17: −0.5683
[2]; BUB1B (O60566-3), experiment wp137
  logFC BUB1B: −0.3313
[2]; [7]
  logFC: −1.37
[2]; Experiment wp137, direction down
  logFC PRKAA1 (Q13131-2): −0.6678
[2]; [13]
  logFC LCK: −0.8721
  logFC LCK (P06239-3): −0.8721
[2]; [10]
  logFC: −0.4824

## NC(=O)c1c(F)cccc1Nc1nc(Nc2ccc(S(=O)(=O)NCCOCCOCCOCCOCCNc3cccc4c3C(=O)N(C3CCC(=O)NC3=O)C4=O)cc2)ncc1Br (stereo not drawn) [TMX.02.138]
[1]; experiment wp146
  logFC AURKA (O14965): −2.933
[2]; [14]
  logFC: −1.832
  logFC AURKB: −1.832
[2]; [15]
  logFC GSK3B: −0.604
[2]; [7]
  logFC: −1.889
[2]; [16]
  logFC: −0.4648
  logFC CLK1: −0.4648
[2]; [17]
  logFC MAPK8 (P45983-4): −0.9813
  logFC PRKAA1 (Q13131-2): −0.7125
[2]; [18]
  logFC GSK3B: −0.604
[2]; experiment wp146
  logFC MAPK8: −0.9813
  logFC RPS6KA1: −0.501
  logFC CDK9 (P50750-2): −1.889
  logFC CDK16 (Q00536-2): −1.434
  logFC PRKAA1 (Q13131-2): −0.7125
  logFC RPS6KA1 (Q15418-2): −0.501

## Cc1cc(Nc2ncc(Br)c(Nc3cccc(F)c3C(N)=O)n2)ccc1S(=O)(=O)NCCOCCOCCOCCOCCNc1cccc2c1C(=O)N(C1CCC(=O)NC1=O)C2=O (stereo not drawn) [TMX.02.174]
[1]; experiment wp146
  logFC AURKA (O14965): −2.865
[2]; [14]
  logFC: −1.578
  logFC AURKB: −1.578
[2]; [15]
  logFC GSK3B: −0.6472
[2]; [7]
  logFC: −1.666
[2]; [16]
  logFC: −0.4606
  logFC CLK1: −0.4606
[2]; [17]
  logFC MAPK8 (P45983-4): −0.7761
  logFC PRKAA1 (Q13131-2): −1.622
[2]; [18]
  logFC GSK3B: −0.6472
[2]; experiment wp146
  logFC MAPK8: −0.7761
  logFC RPS6KA1: −0.6638
  logFC CDK9 (P50750-2): −1.666
  logFC CDK16 (Q00536-2): −1.176
  logFC PRKAA1 (Q13131-2): −1.622
  logFC RPS6KA1 (Q15418-2): −0.6638
[2]; experiment wp146, direction of change down
  logFC NEK1 (Q96PY6-3): −0.3871
[2]; protein NEK1 (Q96PY6-3), experiment wp146, down
  logFC NEK1: −0.3871

Source: patent publication US20240269139A1, “COMPOUNDS FOR TARGETED PROTEIN DEGRADATION OF KINASES” (DANA-FARBER CANCER INSTITUTE, INC., priority 2020, published 2024)
